In patent publication US20070275967A1, “Pyrazolinols” (BAYER CROPSCIENCE AKTIENGESELLSCHAFT, priority 2003, published 2007):

Tests used:
[1] = logP determination by HPLC on reversed-phase column (EEC Directive 79/831 Annex V.A8); assay type: physicochemical; details: reversed-phase C18 HPLC column; acidic range (pH 2.3), marked a); 0.1% aqueous phosphoric acid/acetonitrile gradient; reversed-phase C 18; 43° C.
Procedure: The logP values given in the table were determined in accordance with EEC Directive 79/831 Annex V.A8 by HPLC (High Performance Liquid Chromatography) on a reversed-phase column (C 18). Temperature: 43° C. (a) Mobile phases for the determination in the acidic range (pH 2.3): 0.1% aqueous phosphoric acid, acetonitrile; linear gradient from 10% acetonitrile to 90% acetonitrile—the corresponding measurement results in table 1 are marked a). (b) Mobile phases for the determination in the neutral range (pH 7.5): 0.01-molar aqueous phosphate buffer solution, acetonitrile; linear gradient from 10% acetonitrile to 90% acetonitrile—the corresponding measurement results in table 1 are marked b). Calibration was carried out using unbranched alkan-2-ones (having 3 to 16 carbon atoms) with known logP values (determination of the logP values by the retention times using linear interpolation between two successive alkanones).

Meloidogyne incognita = assay: Meloidogyne test (nematicidal action by gall formation on lettuce roots); assay type: in vivo; details: for nematicidal action (formation of galls): Meloidogyne incognita egg/larvae suspension, lettuce, sand, result in words; for pest or weed control at 20 ppm: Meloidogyne incognita, 336 h, active compound concentration 20 ppm, after 14 d, nematicidal action by gall formation, read-out: Effect in % after 14 d
Procedure: Meloidogyne Test [table] To produce a suitable preparation of active compound, 1 part by weight of active compound is mixed with the stated amounts of solvent and emulsifier, and the concentrate is diluted with water to the desired concentration. Containers are filled with sand, solution of active compound, Meloidogyne incognita egg/larvae suspension and lettuce seeds. The lettuce seeds germinate and the plants develop. On the roots, galls are formed. After the desired period of time, the nematicidal action is determined in % by the formation of galls. 100% means that no galls were found; 0% means that the number of galls on the treated plants corresponds to that of the untreated control.

[2] = tested on: green peach aphid (Myzus persicae); assay: Myzus test (spray treatment); assay type: in vivo; details: for activity (kill of aphids): Chinese cabbage disks infested by all stages of Myzus persicae, sprayed, result in words; for pest or weed control at 500 g/ha: Myzus persicae, 120 h, active compound concentration 500 g/ha, after 5 d, spray treatment, read-out: Kill rate in % after 5 d
Procedure: Myzus Test (Spray Treatment) [table] To produce a suitable preparation of active compound, 1 part by weight of active compound is mixed with the stated amounts of solvents and emulsifier, and the concentrate is diluted with emulsifier-containing water to the desired concentration. Disks of Chinese cabbage (Brassica pekinensis) which are infested by all stages of the green peach aphid (Myzus persicae) are sprayed with a preparation of active compound of the desired concentration. After the desired period of time, the activity in % is determined. 100% means that all aphids have been killed; 0% means that none of the aphids have been killed.

[3] = tested on: larvae of the mustard beetle (Phaedon cochleariae); assay: Phaedon test (spray treatment); assay type: in vivo; details: for activity (kill of beetle larvae): Chinese cabbage disks sprayed, populated with Phaedon cochleariae larvae, result in words; for pest or weed control at 500 g/ha: Phaedon cochleariae, 168 h, active compound concentration 500 g/ha, after 7 d, spray treatment, read-out: Kill rate in % after 7 d
Procedure: Phaedon Test (Spray Treatment) [table] To produce a suitable preparation of active compound, 1 part by weight of active compound is mixed with the stated amounts of solvents and emulsifier, and the concentrate is diluted with emulsifier-containing water to the desired concentration. Disks of Chinese cabbage (Brassica pekinensis) are sprayed with a preparation of active compound of the desired concentration and, once they have dried, populated with larvae of the mustard beetle (Phaedon cochleariae). After the desired period of time, the activity in % is determined. 100% means that all beetle larvae have been killed; 0% means that none of the beetle larvae have been killed.

[4] = tested on: caterpillars of the armyworm (Spodoptera frugiperda); assay: Spodoptera frugiperda test (spray treatment); assay type: in vivo; details: for pest or weed control at 500 g/ha: Spodoptera frugiperda, 168 h, active compound concentration 500 g/ha, after 7 d, spray treatment, read-out: Kill rate in % after 7 d; for activity (kill of caterpillars): corn leaf disks sprayed, populated with Spodoptera frugiperda caterpillars, result in words
Procedure: Spodoptera Frugiperda Test (Spray Treatment) [table] To produce a suitable preparation of active compound, 1 part by weight of active compound is mixed with, the stated amounts of solvents and emulsifier, and the concentrate is diluted with emulsifier-containing water to the desired concentration. Disks of corn leaves (Zea mays) are sprayed with a preparation of active compound of the desired concentration and, after they have dried, populated with caterpillars of the armyworm (Spodoptera frugiperda). After the desired period of time, the activity in % is determined. 100% means that all caterpillars have been killed; 0% means that none of the caterpillars have been killed.

[5] = tested on: greenhouse red spidermite (Tetranychus urticae); assay: Tetranychus test (OP-resistant/spray treatment); assay type: in vivo; details: for pest or weed control at 100 g/ha / pest or weed control at 500 g/ha: Tetranychus urticae, 120 h, after 5 d, OP-resistant, spray treatment, read-out: Kill rate in % after 5 d; for pest or weed control at 100 g/ha: active compound concentration 100 g/ha; for activity (kill of spidermites): bean leaf disks infested by all stages of Tetranychus urticae (OP-resistant), sprayed, result in words; for pest or weed control at 500 g/ha: active compound concentration 500 g/ha
Procedure: Tetranychus Test (OP-Resistant/Spray Treatment)
To produce a suitable preparation of active compound, 1 part by weight of active compound is mixed with the stated amounts of solvents and emulsifier, and the concentrate is diluted with emulsifier-containing water to the desired concentration.
Disks of bean leaves (Phaseolus vulgaris) which are infested by all stages of the greenhouse red spidermite (Tetranychus urticae) are sprayed with a preparation of active compound of the desired concentration.
After the desired period of time, the activity in % is determined. 100% means that all spidermites have been killed; 0% means that none of the spidermites have been killed.

[6] = tested on: Adults of Ctenocephalides felis; assay: Test with cat fleas/oral uptake; assay type: in vivo; details: for Kill rate in % after 2 d: active compound concentration 100 ppm, oral uptake; for mortality of fleas: oral uptake from citrated cattle blood, at least 75% kill within 48 h judged effective, result in words
Procedure: Test with Cat Fleas/Oral Uptake
Ctenocephalides Felis (Oral)
To produce a suitable formulation, a suitable solution of active compound is prepared from 10 mg of active compound and 0.5 ml of DMSO. 10 μl of this formulation are added to 2 ml of citrated cattle blood and stirred.
20 unfed adult fleas (Ctenocephalides felis, strain “Georgi”) are placed into a chamber (Ø 5 cm) whose top and bottom are closed with gauze. A metal cylinder whose underside is covered with parafilm is placed onto the chamber. The cylinder contains the 2 ml of blood/active compound formulation which can be taken up by the fleas through the parafilm membrane. Whereas the blood is warmed to 37° C., the temperature in the area of the flea chambers is adjusted to room temperature. Controls are mixed with the same volume of DMSO, without addition of a compound.
After 24 h and 48 h, the mortality in % is determined.
Compounds which effect an at least 75% kill of the fleas within 48 h are judged to be effective.

| chromatographic logP [1] | SMILES | nematicidal action (formation of galls) (Meloidogyne incognita) | pest or weed control at 20 ppm (Meloidogyne incognita) [%] | activity (kill of aphids) [2] | pest or weed control at 500 g/ha [2] [%] | activity (kill of beetle larvae) [3] | pest or weed control at 500 g/ha [3] [%] | pest or weed control at 500 g/ha [4] [%] | activity (kill of caterpillars) [4] | also measured |
| --- | --- | --- | --- | --- | --- | --- | --- | --- | --- | --- |
| 3.26 | CC1=NN(C(=O)Nc2ccc(C(F)(F)F)cc2)C(O)(C(F)(F)F)C1 (stereo not drawn) [Example 115] | good activity | 100 | – | – | – | – | – | – | – |
| 4.04 | CC(C)C1=NN(C(=S)Nc2ccccc2[N+](=O)[O-])C(O)(C(F)(F)F)C1 (stereo not drawn) [Example 31] | – | – | good activity | 100 | good activity | 100 | 100 | good activity | – |
| 3.47 | CCC1=NN(C(=S)Nc2ccc(OC)cc2)C(O)(C(F)(F)F)C1 (stereo not drawn) [Example 14] | good activity | 100 | – | – | – | – | – | – | – |
| 3.83 | COc1ccc(NC(=S)N2N=C(C(C)C)CC2(O)C(F)(F)F)cc1 (stereo not drawn) [Example 19] | good activity | 100 | – | – | – | – | – | – | – |
| 3.9 | CC(C)C1=NN(C(=S)Nc2ccccc2)C(O)(C(F)(F)F)C1 (stereo not drawn) [Example 27] | – | – | good activity | 100 | good activity | 100 | 100 | good activity | pest or weed control at 100 g/ha [5]: 90%; activity (kill of spidermites) [5]: good activity |
| 4.28 | CC(C)C1=NN(C(=S)Nc2ccccc2Cl)C(O)(C(F)(F)F)C1 (stereo not drawn) [Example 20] | – | – | good activity | 100 | – | – | 100 | good activity | – |
| 4.58 | CC(C)C1=NN(C(=S)NCc2ccccc2Cl)C(O)(C(F)(F)F)C1 (stereo not drawn) [Example 42] | – | – | good activity | 100 | good activity | 100 | 100 | good activity | pest or weed control at 500 g/ha [5]: 100%; activity (kill of spidermites) [5]: good activity |
| 3 | CC1=NN(C(=O)Nc2ccc(Cl)cc2)C(O)(C(F)(F)F)C1 (stereo not drawn) [Example 114] | good activity | 90 | – | – | – | – | – | – | – |
| 3.35 | CC1=NN(C(=O)Nc2ccc(OC(F)(F)F)cc2)C(O)(C(F)(F)F)C1 (stereo not drawn) [Example 46] | – | – | good activity | 90 | – | – | – | – | – |
| 3.86 | CC(C)C1=NN(C(=S)Nc2ccccc2F)C(O)(C(F)(F)F)C1 (stereo not drawn) [Example 1, N-(2-fluorophenyl)-5-hydroxy-3-(i-propyl)-5-trifluoromethyl-4,5-dihydro-1H-pyrazole-1-carbothioamide] | – | – | good activity | 100 | good activity | 100 | 100 | good activity | pest or weed control at 100 g/ha [5]: 90%; activity (kill of spidermites) [5]: good activity |
| 2.91 | CC1=NN(C(=S)Nc2c(F)cccc2F)C(O)(C(F)(F)F)C1 (stereo not drawn) [Example 100] | good activity | 90 | – | – | – | – | – | – | – |
| 3.85 | CCC1=NN(C(=S)Nc2ccccc2Cl)C(O)(C(F)(F)F)C1 (stereo not drawn) [Example 15] | – | – | good activity | 90 | – | – | – | – | – |
| 3.74 | CCC1=NN(C(=O)Nc2ccc(OC(F)(F)F)cc2)C(O)(C(F)(F)F)C1 (stereo not drawn) [Example 12] | – | – | good activity | 100 | – | – | – | – | – |
| 4.6 | CC(C)CC1=NN(C(=S)Nc2ccccc2Cl)C(O)(C(F)(F)F)C1 (stereo not drawn) [Example 24] | – | – | good activity | 90 | – | – | 100 | good activity | pest or weed control at 500 g/ha [5]: 90%; activity (kill of spidermites) [5]: good activity |
| 1.45 | CC(C)C1=NN(C(=S)NCCN2CCOCC2)C(O)(C(F)(F)F)C1 (stereo not drawn) [Example 43] | good activity | 100 | – | – | – | – | – | – | – |
| – | CC1=NN(C(=S)NCc2ccc(Cl)cc2)C(O)(C(F)(F)F)C1 (stereo not drawn) [Example 123] | good activity | 90 | – | – | – | – | – | – | – |
| – | CC1=NN(C(=S)Nc2ccc(Cl)cc2)C(O)(C(F)(F)F)C1 (stereo not drawn) [Example 122] | good activity | 90 | – | – | – | – | – | – | – |
| 4.87 | CC(C)C1=NN(C(=S)Nc2cc(Cl)ccc2Cl)C(O)(C(F)(F)F)C1 (stereo not drawn) [Example 33] | – | – | good activity | 100 | good activity | 100 | – | – | – |

| SMILES | chromatographic logP [1] | nematicidal action (formation of galls) (Meloidogyne incognita) | pest or weed control at 20 ppm (Meloidogyne incognita) [%] | activity (kill of aphids) [2] | pest or weed control at 500 g/ha [2] [%] | activity (kill of beetle larvae) [3] | pest or weed control at 500 g/ha [3] [%] | pest or weed control at 500 g/ha [4] [%] | activity (kill of caterpillars) [4] | also measured |
| --- | --- | --- | --- | --- | --- | --- | --- | --- | --- | --- |
| CC(C)C1=NN(C(=S)Nc2ccc(Cl)cc2Cl)C(O)(C(F)(F)F)C1 (stereo not drawn) [Example 34] | 4.91 | – | – | – | – | good activity | 100 | – | – | pest or weed control at 500 g/ha [5]: 100%; activity (kill of spidermites) [5]: good activity; Kill rate in % after 2 d [6]: 100%; mortality of fleas [6]: good activity |
| CC(C)C1=NN(C(=S)Nc2c(Cl)cccc2Cl)C(O)(C(F)(F)F)C1 (stereo not drawn) [Example 29] | 4 | – | – | – | – | good activity | 100 | 100 | good activity | Kill rate in % after 2 d [6]: 100%; mortality of fleas [6]: good activity |
